Laboratory results as given in PubChem BioAssay (NCI).
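Each compound was tested at five concentrations against cells in 96-well plates for 48 hours. The concentration for full growth arrest is given as TGI.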

tested on: RPMI-8226 leukemia; test: growth of human tumour cells (NCI), 48 h

With `Oc1ccc2c(c1)c1c(n2CCN2CCOCC2)-c2ccccc2CC1` as the molecule, how does the TGI read?
Its TGI is over 100 µM.

tested on: LOX IMVI melanoma; test: growth of human tumour cells (NCI), 48 h

Which TGI does the source give for `O=C1CCCCC1CN1CCCCC1` (configuration not stated) here?
Its TGI is over 100 µM.

For `CCOC(=O)Nc1sc2c(c1C#N)CCCC2`, which TGI is on record?
Its TGI is over 100 µM.

`Nc1nc2c(c(-c3cccc(Cl)c3)n1)COC/C2=C\c1cccc(Cl)c1` was tested. Which TGI did it give?
The TGI was over 100 µM.

`O=C(/C=C/c1ccc2c(c1)OCO2)c1ccc(O)cc1` was tested. Which TGI did it give?
The TGI was 24.8 µM.

Which TGI does the source give for `c1ccc2c(c1)Cn1c-2nc2ccccc21` here?
The TGI was over 100 µM.

`Oc1ccc2c(c1)c1c(n2CCN2CCOCC2)-c2ccccc2CC1` was tested. Which TGI did it give?
The TGI was 57.8 µM.

tested on: NCI-H226 lung; test: growth of human tumour cells (NCI), 48 h

`O=C1CCCCC1CN1CCCCC1` (configuration not stated) was tested. Which TGI did it give?
Its TGI is over 100 µM.

For `CCOC(=O)Nc1sc2c(c1C#N)CCCC2`, which TGI is on record?
Its TGI is over 100 µM.

How did the TGI turn out when `Nc1nc2c(c(-c3cccc(Cl)c3)n1)COC/C2=C\c1cccc(Cl)c1` was run?
Its TGI is over 100 µM.

For `O=C(/C=C/c1ccc2c(c1)OCO2)c1ccc(O)cc1`, which TGI is on record?
Its TGI is 37.9 µM.

Which TGI does the source give for `c1ccc2c(c1)Cn1c-2nc2ccccc21` here?
The TGI was over 100 µM.

With `Oc1ccc2c(c1)c1c(n2CCN2CCOCC2)-c2ccccc2CC1` as the molecule, how does the TGI read?
Its TGI is 85.6 µM.

tested on: K-562 leukemia; test: growth of human tumour cells (NCI), 48 h

With `O=C1CCCCC1CN1CCCCC1` (configuration not stated) as the molecule, how does the TGI read?
Its TGI is over 100 µM.

How did the TGI turn out when `CCOC(=O)Nc1sc2c(c1C#N)CCCC2` was run?
Its TGI is over 100 µM.

`Nc1nc2c(c(-c3cccc(Cl)c3)n1)COC/C2=C\c1cccc(Cl)c1` was tested. Which TGI did it give?
The TGI was over 100 µM.

For `O=C(/C=C/c1ccc2c(c1)OCO2)c1ccc(O)cc1`, which TGI is on record?
Its TGI is 27.1 µM.

With `c1ccc2c(c1)Cn1c-2nc2ccccc21` as the molecule, how does the TGI read?
Its TGI is over 100 µM.

How did the TGI turn out when `Oc1ccc2c(c1)c1c(n2CCN2CCOCC2)-c2ccccc2CC1` was run?
The TGI was over 100 µM.

tested on: HOP-92 NSCLC; test: growth of human tumour cells (NCI), 48 h

Which TGI does the source give for `O=C1CCCCC1CN1CCCCC1` (configuration not stated) here?
Its TGI is over 100 µM.

How did the TGI turn out when `CCOC(=O)Nc1sc2c(c1C#N)CCCC2` was run?
Its TGI is over 100 µM.

`O=C1CN(c2cccc(Cl)c2)C(=O)CN1CCN1CC(=O)N(c2cccc(Cl)c2)CC1=O` was tested. Which TGI did it give?
Its TGI is over 100 µM.

Which TGI does the source give for `Nc1nc2c(c(-c3cccc(Cl)c3)n1)COC/C2=C\c1cccc(Cl)c1` here?
The TGI was over 100 µM.

For `O=C(/C=C/c1ccc2c(c1)OCO2)c1ccc(O)cc1`, which TGI is on record?
The TGI was 28.8 µM.

`c1ccc2c(c1)Cn1c-2nc2ccccc21` was tested. Which TGI did it give?
The TGI was over 100 µM.

tested on: A549 NSCLC; test: growth of human tumour cells (NCI), 48 h

For `O=C1CCCCC1CN1CCCCC1` (configuration not stated), which TGI is on record?
The TGI was over 100 µM.

Which TGI does the source give for `O=C1CN(c2cccc(Cl)c2)C(=O)CN1CCN1CC(=O)N(c2cccc(Cl)c2)CC1=O` here?
Its TGI is over 100 µM.

How did the TGI turn out when `O=C(/C=C/c1ccc2c(c1)OCO2)c1ccc(O)cc1` was run?
The TGI was 50.7 µM.

For `c1ccc2c(c1)Cn1c-2nc2ccccc21`, which TGI is on record?
Its TGI is over 100 µM.

tested on: 786-0 renal; test: growth of human tumour cells (NCI), 48 h

For `O=C1CCCCC1CN1CCCCC1` (configuration not stated), which TGI is on record?
The TGI was over 100 µM.

With `CCOC(=O)Nc1sc2c(c1C#N)CCCC2` as the molecule, how does the TGI read?
Its TGI is over 100 µM.

Which TGI does the source give for `O=C1CN(c2cccc(Cl)c2)C(=O)CN1CCN1CC(=O)N(c2cccc(Cl)c2)CC1=O` here?
The TGI was over 100 µM.

`Nc1nc2c(c(-c3cccc(Cl)c3)n1)COC/C2=C\c1cccc(Cl)c1` was tested. Which TGI did it give?
The TGI was over 100 µM.

Which TGI does the source give for `O=C(/C=C/c1ccc2c(c1)OCO2)c1ccc(O)cc1` here?
Its TGI is 3.01 µM.

Which TGI does the source give for `c1ccc2c(c1)Cn1c-2nc2ccccc21` here?
The TGI was over 100 µM.

How did the TGI turn out when `Oc1ccc2c(c1)c1c(n2CCN2CCOCC2)-c2ccccc2CC1` was run?
The TGI was over 100 µM.

tested on: SF-268 CNS; test: growth of human tumour cells (NCI), 48 h

How did the TGI turn out when `O=C1CCCCC1CN1CCCCC1` (configuration not stated) was run?
The TGI was over 100 µM.

`CCOC(=O)Nc1sc2c(c1C#N)CCCC2` was tested. Which TGI did it give?
The TGI was over 100 µM.

Which TGI does the source give for `O=C1CN(c2cccc(Cl)c2)C(=O)CN1CCN1CC(=O)N(c2cccc(Cl)c2)CC1=O` here?
The TGI was over 100 µM.

`Nc1nc2c(c(-c3cccc(Cl)c3)n1)COC/C2=C\c1cccc(Cl)c1` was tested. Which TGI did it give?
The TGI was over 100 µM.

Which TGI does the source give for `O=C(/C=C/c1ccc2c(c1)OCO2)c1ccc(O)cc1` here?
Its TGI is over 100 µM.

For `c1ccc2c(c1)Cn1c-2nc2ccccc21`, which TGI is on record?
The TGI was over 100 µM.

For `Oc1ccc2c(c1)c1c(n2CCN2CCOCC2)-c2ccccc2CC1`, which TGI is on record?
Its TGI is over 100 µM.

tested on: HOP-62 NSCLC; test: growth of human tumour cells (NCI), 48 h

For `O=C1CCCCC1CN1CCCCC1` (configuration not stated), which TGI is on record?
Its TGI is over 100 µM.

With `CCOC(=O)Nc1sc2c(c1C#N)CCCC2` as the molecule, how does the TGI read?
The TGI was over 100 µM.

How did the TGI turn out when `O=C1CN(c2cccc(Cl)c2)C(=O)CN1CCN1CC(=O)N(c2cccc(Cl)c2)CC1=O` was run?
The TGI was over 100 µM.

For `Nc1nc2c(c(-c3cccc(Cl)c3)n1)COC/C2=C\c1cccc(Cl)c1`, which TGI is on record?
Its TGI is over 100 µM.
